Key:
MDA-MB-231 = experiment: Cell proliferation inhibition (methylene blue); assay type: cell-based; conditions: Homo sapiens; MDA-MB-231 breast cancer cell line, 72 hours; read-out: Viability GI50
Description: (§1) Cell lines used in the experiment are lung cancer cell lines A549 and H1703, colorectal cancer cell lines HCT116 and HT29, liver cancer cell lines Hep3B and HepG2, gastric or stomach cancer cell lines NUGC-3 and AGS, kidney and renal cancer cell lines 786-O and Caki-1, breast cancer cell lines MCF-7 and MDA-MB-231, a prostate cancer cell line PC3, a pancreatic cancer cell line MIA-PaCa-2, a cervical cancer cell line HeLa, and normal cell lines WI-38 and CCD-32Lu. Specifically, each of the cell lines was suspended in DMEM containing 5% FBS, transferred to a 96-well plate (3×10^3 cells/well), and cultured in a 37 □ cell incubator maintaining 5% carbon dioxide for 24 hours. […] Afterward, a change in the concentration of methylene blue extracted with a 0.5% aqueous hydrochloric acid solution was analyzed by measuring absorbance at 600 nm.

HepG2 = experiment: Cell proliferation inhibition (methylene blue); assay type: cell-based
Description: as §1

Hep3B = experiment: Cell proliferation inhibition (methylene blue); assay type: cell-based; conditions: Homo sapiens; Hep3B liver cancer cell line, 72 hours; read-out: Viability GI50
Description: as §1

NUGC-3 = experiment: Cell proliferation inhibition (methylene blue); assay type: cell-based; conditions: Homo sapiens; NUGC-3 gastric or stomach cancer cell line, 72 hours; read-out: Viability GI50
Description: as §1

A549 = experiment: Cell proliferation inhibition (methylene blue); assay type: cell-based
Description: as §1

MIA PaCa-2 = experiment: Cell proliferation inhibition (methylene blue); assay type: cell-based; conditions: Homo sapiens; MIA PaCa-2 pancreatic cancer cell line, 72 hours; read-out: Viability GI50
Description: as §1

H1703 = experiment: Cell proliferation inhibition (methylene blue); assay type: cell-based; conditions: Homo sapiens, NCI-H1703; H1703 lung cancer cell line, 72 hours; read-out: Viability GI50
Description: as §1

WI-38 = experiment: Cell proliferation inhibition (methylene blue); assay type: cell-based
Description: as §1

AGS = experiment: Cell proliferation inhibition (methylene blue); assay type: cell-based; conditions: Homo sapiens; AGS gastric or stomach cancer cell line, 72 hours; read-out: Viability GI50
Description: as §1

786-O = experiment: Cell proliferation inhibition (methylene blue); assay type: cell-based; conditions: Homo sapiens, 786-0; 786-O kidney and renal cancer cell line, 72 hours; read-out: Viability GI50
Description: as §1

Caki-1 = experiment: Cell proliferation inhibition (methylene blue); assay type: cell-based; conditions: Homo sapiens; Caki-1 kidney and renal cancer cell line, 72 hours; read-out: Viability GI50
Description: as §1

HeLa = experiment: Cell proliferation inhibition (methylene blue); assay type: cell-based; conditions: Homo sapiens; HeLa cervical cancer cell line, 72 hours; read-out: Viability GI50
Description: as §1

PC3 = experiment: Cell proliferation inhibition (methylene blue); assay type: cell-based; conditions: Homo sapiens, PC-3; PC3 prostate cancer cell line, 72 hours; read-out: Viability GI50
Description: as §1

CCD-32Lu = experiment: Cell proliferation inhibition (methylene blue); assay type: cell-based
Description: as §1

MCF-7 = experiment: Cell proliferation inhibition (methylene blue); assay type: cell-based; conditions: Homo sapiens, MCF7; MCF-7 breast cancer cell line, 72 hours; read-out: Viability GI50
Description: as §1

HT29 = experiment: Cell proliferation inhibition (methylene blue); assay type: cell-based; conditions: Homo sapiens, HT-29; HT29 colorectal cancer cell line, 72 hours; read-out: Viability GI50
Description: as §1

HCT116 = experiment: Cell proliferation inhibition (methylene blue); assay type: cell-based
Description: as §1

HIF-1α = HIF-1α inhibitory activity, immunoblot in hypoxic HCT-116 cells; assay type: cell-based; conditions: HCT-116, hypoxia (1% oxygen) 6 hours; 2.5, 5 and 10 μM
Method: Hypoxia-inducible factor-1α (HIF-1α) is a factor that affects radioresistance and chemoresistance in solid cancer and malignancy of cancer. More specifically, an HCT-116 colorectal cancer cell line was suspended in DMEM containing 5% fetal bovine serum (FBS), transferred to a 6-well plate (5×10^5 cells/well), and cultured in a 37 D cell incubator maintaining 5% carbon dioxide for 24 hours. To induce the accumulation of HIF-1a protein by hypoxia, the cells were cultured under 1% oxygen, 94% nitrogen and 5% carbon dioxide conditions for 6 hours. The HCT-116 cells were disrupted using a radioimmunoprecipitation assay buffer (RIPA buffer, Millipore), thereby obtaining a cell extract, and 10 μg each of the cell extract was isolated through SDS-PAGE, transferred to a polyvinylidene fluoride (PVDF) membrane, followed by sequentially binding of a HIF-1α antibody (BD Biosciences), a HIF-1β antibody (BD Biosciences), a β-Actin (SantaCruz) and horseradish peroxidase (HRP)-labeled secondary antibody (SantaCruz) to confirm protein expression.

[1] = Body weight of tumor-transplanted nude mice; assay type: in vivo, mouse; conditions: 20 mg/kg orally once a day
Method: More specifically, a plate-cultured HCT-116 colorectal cancer cell line was obtained by trypsin treatment, washed with a serum-free medium, and diluted to a concentration of 2.5×10^7 cells/mL. Afterward, the diluted cells (5×10^6 cells/200 μl) were administered to a side of each of seven 6-week-old female nude mice (SLC-Central Lab Animal Inc., Korea), which are specific pathogen-free (SPF) Balb/c mice, through subcutaneous injection.

HCT-116 cells = experiment: Intracellular oxygen concentration, hypoxia-sensitive fluorescent probe MAR; assay type: cell-based; conditions: hypoxia 6 hours, MAR probe 0.5 μM
Method: Afterward, an intracellular change in fluorescence intensity by hypoxia was measured and quantified using the IncuCyte® live-cell analysis system (Essen BioScience).

What does the source list for `COC(=O)c1cccc(NC(=O)CCOc2ccc(C(C)(C)CC(C)(C)C)cc2)c1` [Compound 9-2, Methyl 3-(3-(4-(2,4,4-trimethylpentan-2-yl)phenoxy)propanamido)benzoate]?
GI50 (MDA-MB-231): 10 to 20 µM; inhibitory effect on proliferation (HepG2; HepG2 cells): strong inhibitory effect; GI50 (HepG2; Homo sapiens, HepG2 liver cancer cell line, 72 hours, read-out: Viability GI50): 1 to 5 µM; GI50 (Hep3B): 10 to 20 µM; GI50 (NUGC-3): 5 to 10 µM; inhibitory effect on proliferation (A549; A549 cells): strong inhibitory effect; GI50 (A549; Homo sapiens, A549 lung cancer cell line, 72 hours, read-out: Viability GI50): 1 to 5 µM; GI50 (MIA PaCa-2): 5 to 10 µM; GI50 (H1703): 5 to 10 µM; GI50 (WI-38; Homo sapiens, WI-38 normal cell line, 72 hours, read-out: Viability GI50): > 20 µM; effect on proliferation of normal cell lines (WI-38; WI-38, within concentration range in which proliferation of cancer cells is inhibited): no effect on the proliferation of normal cell lines; GI50 (AGS): 10 to 20 µM; GI50 (786-O): 10 to 20 µM; GI50 (Caki-1): 10 to 20 µM; GI50 (HeLa): 10 to 20 µM; GI50 (PC3): 10 to 20 µM; GI50 (CCD-32Lu; CCD-32Lu normal cell line, 72 hours, read-out: Viability GI50): > 20 µM; effect on proliferation of normal cell lines (CCD-32Lu; CCD-32Lu, within concentration range in which proliferation of cancer cells is inhibited): no effect on the proliferation of normal cell lines; GI50 (MCF-7): 10 to 20 µM; GI50 (HT29): 5 to 10 µM; inhibitory effect on proliferation (HCT116; HCT116 cells): strong inhibitory effect; GI50 (HCT116; Homo sapiens, HCT-116, HCT116 colorectal cancer cell line, 72 hours, read-out: Viability GI50): 1 to 5 µM; HIF-1α protein accumulation (HIF-1α): inhibits HIF-1α protein accumulation in a concentration-dependent manner; change in body weight ([1]; 24 days): no significant change in body weight; Body weight ([1]; day 0): 21.2 ± 0.6 g; Body weight ([1]; day 3): 21.5 ± 0.8 g; Body weight ([1]; day 5): 21.8 ± 0.7 g; Body weight ([1]; day 7): 21.6 ± 1.1 g; Body weight ([1]; day 10): 22.2 ± 1.0 g; Body weight ([1]; day 12): 22.7 ± 0.7 g; Body weight ([1]; day 14): 22.7 ± 1.0 g; Body weight ([1]; day 17): 22.6 ± 0.8 g; Body weight ([1]; day 19): 22.4 ± 0.5 g; Body weight ([1]; day 21): 22.5 ± 0.7 g; Body weight ([1]; day 24): 22.3 ± 0.8 g; intracellular oxygen concentration (HCT-116 cells): increased

Source: US12630497B2, “Compound having malate dehydrogenase inhibitory activity and pharmaceutical composition for preventing or treating cancer comprising same as active ingredient” (DONGGUK UNIVERSITY INDUSTRY-ACADEMIC COOPERATION FOUNDATION, priority 2017, dated 2026)
